Numbers after ± are expanded uncertainties.
Assay: xn = mol fraction of the nth substance listed
Settings: 303.15 K, 101 kPa, Liquid; for speed of sound: Frequency=1 MHz

## ClC=C(Cl)Cl [trichloroethene] + CCCOC(C)=O
x1 = 0.1419
  speed of sound: 1126 ± 6 m/s
  mass density: 942.22 ± 0.93 kg/m3
  viscosity: 0.567 ± 0.013 mPa·s
x1 = 0.2337
  speed of sound: 1112 ± 6 m/s
  mass density: 987.22 ± 0.94 kg/m3
  viscosity: 0.578 ± 0.014 mPa·s
x1 = 0.364
  speed of sound: 1094 ± 5 m/s
  mass density: 1054.63 ± 1.1 kg/m3
  viscosity: 0.592 ± 0.014 mPa·s
x1 = 0.4555
  speed of sound: 1081 ± 5 m/s
  mass density: 1104.47 ± 1.3 kg/m3
  viscosity: 0.601 ± 0.014 mPa·s
x1 = 0.5827
  speed of sound: 1063 ± 5 m/s
  mass density: 1177.08 ± 1.5 kg/m3
  viscosity: 0.61 ± 0.014 mPa·s
x1 = 0.6735
  speed of sound: 1050 ± 5 m/s
  mass density: 1231.75 ± 1.7 kg/m3
  viscosity: 0.614 ± 0.014 mPa·s
x1 = 0.7713
  speed of sound: 1038 ± 5 m/s
  mass density: 1293.35 ± 1.9 kg/m3
  viscosity: 0.612 ± 0.014 mPa·s
x1 = 0.8922
  speed of sound: 1025 ± 5 m/s
  mass density: 1374.05 ± 2.2 kg/m3
  viscosity: 0.604 ± 0.014 mPa·s
x1 = 1
  speed of sound: 1016 ± 5 m/s
  mass density: 1450.9 ± 2.5 kg/m3
  viscosity: 0.589 ± 0.014 mPa·s

## ClC=C(Cl)Cl [trichloroethene] + CCOC(C)=O
x1 = 0.1325
  speed of sound: 1105 ± 5 m/s
  mass density: 957.65 ± 0.43 kg/m3
  viscosity: 0.451 ± 0.01 mPa·s
x1 = 0.2099
  speed of sound: 1094 ± 5 m/s
  mass density: 998.68 ± 0.43 kg/m3
  viscosity: 0.47 ± 0.011 mPa·s
x1 = 0.3674
  speed of sound: 1073 ± 5 m/s
  mass density: 1083.99 ± 0.72 kg/m3
  viscosity: 0.501 ± 0.011 mPa·s
x1 = 0.4158
  speed of sound: 1067 ± 5 m/s
  mass density: 1110.76 ± 0.83 kg/m3
  viscosity: 0.509 ± 0.012 mPa·s
x1 = 0.5484
  speed of sound: 1051 ± 5 m/s
  mass density: 1185.16 ± 1.1 kg/m3
  viscosity: 0.532 ± 0.012 mPa·s
x1 = 0.6854
  speed of sound: 1037 ± 5 m/s
  mass density: 1263.95 ± 1.5 kg/m3
  viscosity: 0.552 ± 0.013 mPa·s
x1 = 0.8354
  speed of sound: 1025 ± 5 m/s
  mass density: 1352.1 ± 1.9 kg/m3
  viscosity: 0.57 ± 0.013 mPa·s
x1 = 0.8995
  speed of sound: 1021 ± 5 m/s
  mass density: 1390.34 ± 2.1 kg/m3
  viscosity: 0.577 ± 0.013 mPa·s
x1 = 1
  speed of sound: 1016 ± 5 m/s
  mass density: 1450.9 ± 2.5 kg/m3
  viscosity: 0.589 ± 0.014 mPa·s

Source: the NIST ThermoML archive (doi:10.1007/s10765-015-1927-y)
